Laboratory results as given in US11014941B2, “Pyrrolopyrimidine derivatives useful as inhibitors of influenza virus replication” (priority 2017, dated 2021).

The compounds below were run against Influenza PB2 (Influenza A virus, UniProt P03428) (assay: biochemical). Details: read-out: Influenza PB2 affinity, IC50.
Format: binding

Chain of Influenza PB2 (P03428 whole entry, looked up): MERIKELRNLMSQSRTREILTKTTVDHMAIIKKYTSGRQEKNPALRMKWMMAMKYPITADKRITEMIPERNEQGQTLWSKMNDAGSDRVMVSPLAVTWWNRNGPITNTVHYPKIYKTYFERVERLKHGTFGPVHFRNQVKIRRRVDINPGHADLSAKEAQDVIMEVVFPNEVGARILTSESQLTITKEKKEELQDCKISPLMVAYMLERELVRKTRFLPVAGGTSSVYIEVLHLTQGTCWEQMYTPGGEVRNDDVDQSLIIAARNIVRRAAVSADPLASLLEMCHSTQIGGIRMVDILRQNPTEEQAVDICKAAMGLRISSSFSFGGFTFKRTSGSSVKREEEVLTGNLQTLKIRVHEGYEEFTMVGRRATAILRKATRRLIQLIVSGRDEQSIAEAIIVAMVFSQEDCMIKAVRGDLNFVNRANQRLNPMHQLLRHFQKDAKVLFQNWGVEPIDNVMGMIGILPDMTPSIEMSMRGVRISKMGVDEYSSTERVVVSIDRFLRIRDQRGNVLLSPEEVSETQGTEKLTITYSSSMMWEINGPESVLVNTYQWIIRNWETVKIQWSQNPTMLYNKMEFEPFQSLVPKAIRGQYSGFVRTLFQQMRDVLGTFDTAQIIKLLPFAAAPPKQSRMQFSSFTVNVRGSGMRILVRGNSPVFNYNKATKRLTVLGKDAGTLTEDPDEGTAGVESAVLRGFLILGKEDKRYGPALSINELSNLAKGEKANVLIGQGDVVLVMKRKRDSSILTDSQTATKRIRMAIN

SMILES | IC50 [µM]
CCOC(=O)[C@H]1C2CCC(CC2)[C@@H]1n1cc(F)c2cnc(-c3c[nH]c4ncc(F)cc34)nc21 [Compound B129] | 10 to 100
O=C(O)[C@H]1C2CCC(CC2)[C@@H]1n1cc(Cl)c2cnc(-c3c[nH]c4ncc(Cl)cc34)nc21 [Compound B130] | 1 to 10
O=C(O)[C@H]1C2CCC(CC2)[C@@H]1n1cc(F)c2cnc(-c3c[nH]c4ncc(F)cc34)nc21 [Compound B131] | < 1
CCOC(=O)[C@H]1C2CCC(CC2)[C@@H]1n1cc(F)c2cnc(-c3c[nH]c4ncc(Cl)cc34)nc21 [Compound B134] | > 100
O=C(O)[C@H]1C2CCC(CC2)[C@@H]1n1cc(F)c2cnc(-c3c[nH]c4ncc(Cl)cc34)nc21 [Compound B135] | < 1
O=C(O)[C@@H]1C2CCC(CC2)C1n1cc(Cl)c2cnc(-c3c[nH]c4ncc(F)cc34)nc21 (some centres unmarked) [Compound B138] | < 1
O=C(O)[C@@H]1C2CCC(CC2)C1n1cc(F)c2cnc(-c3c[nH]c4ncc(F)cc34)nc21 (some centres unmarked) [Compound B139] | 1 to 10
O=C(O)[C@H]1C2CCC(CC2)[C@@H]1n1cc(Cl)c2cnc(-c3c[nH]c4ncccc34)nc21 [Compound B140] | < 1
CNC(=O)[C@H]1C2CCC(CC2)[C@@H]1n1cc(Cl)c2cnc(-c3c[nH]c4ncc(F)cc34)nc21 [Compound B141] | 1 to 10
O=C(O)[C@H]1C2CCC(CC2)[C@@H]1n1cc(-c2cccnc2)c2cnc(-c3c[nH]c4ncc(F)cc34)nc21 [Compound B142] | < 1
O=C(O)[C@@H]1C2CCC(CC2)[C@H]1n1cc(-c2cccc(O)c2)c2cnc(-c3c[nH]c4ncc(F)cc34)nc21 [Compound B145] | < 1
CNC(=O)CNC(=O)[C@H]1C2CCC(CC2)[C@@H]1n1cc(Cl)c2cnc(-c3c[nH]c4ncc(F)cc34)nc21 [Compound B146] | 1 to 10
O=C(O)[C@@H]1C2CCC(CC2)[C@H]1n1cc(-c2ccncc2)c2cnc(-c3c[nH]c4ncc(F)cc34)nc21 [Compound B147] | 1 to 10
COC(=O)N[C@H]1C2CCC(CC2)[C@@H]1n1cc(Cl)c2cnc(-c3c[nH]c4ncc(F)cc34)nc21 [Compound B149] | 1 to 10
O=C(O)[C@@H]1C2CCC(CC2)[C@H]1n1cc(-c2ccccc2)c2cnc(-c3c[nH]c4ncc(F)cc34)nc21 [Compound B150] | 1 to 10
O=C(O)[C@@H]1C2CCC(CC2)[C@H]1n1cc(C(F)(F)F)c2cnc(-c3c[nH]c4ncc(F)cc34)nc21 [Compound B151] | < 1
O=C(O)[C@@H]1C2CCC(CC2)[C@H]1n1cc(C#CCC2CC2)c2cnc(-c3c[nH]c4ncc(F)cc34)nc21 [Compound B152] | 10 to 100
O=C(O)[C@@H]1C2CCC(CC2)[C@H]1n1cc(C#CC2CC2)c2cnc(-c3c[nH]c4ncc(F)cc34)nc21 [Compound B153] | < 1
CCOC(=O)[C@@H]1C2CCC(CC2)[C@H]1n1cc(C#CC2CC2)c2cnc(-c3c[nH]c4ncc(F)cc34)nc21 [Compound B154] | 10 to 100
O=C(O)[C@@H]1C2CCC(CC2)[C@H]1n1cc(-c2ccc(O)cc2)c2cnc(-c3c[nH]c4ncc(F)cc34)nc21 [Compound B160] | 1 to 10
O=C(O)[C@@H]1C2CCC(CC2)[C@H]1n1cc(-c2ccoc2)c2cnc(-c3c[nH]c4ncc(F)cc34)nc21 [Compound B161] | < 1
O=C(O)[C@@H]1C2CCC(CC2)[C@H]1n1cc(-c2ccsc2)c2cnc(-c3c[nH]c4ncc(F)cc34)nc21 [Compound B162] | < 1

SMILES | IC50 [µM]
Cc1cn([C@@H]2C3CCC(CC3)[C@H]2C(=O)O)c2nc(-c3c[nH]c4ncc(F)cc34)ncc12 [Compound B163] | < 1
O=C(O)[C@@H]1C2CCC(CC2)[C@H]1n1cc(-c2ccn[nH]2)c2cnc(-c3c[nH]c4ncc(F)cc34)nc21 [Compound B164] | < 1
O=C(O)[C@@H]1C2CCC(CC2)[C@H]1n1cc(-c2ccccc2O)c2cnc(-c3c[nH]c4ncc(F)cc34)nc21 [Compound B165] | 1 to 10
CC(=O)N[C@H]1C2CCC(CC2)[C@@H]1n1cc(Cl)c2cnc(-c3c[nH]c4ncc(F)cc34)nc21 [Compound B166] | 10 to 100
N[C@H]1C2CCC(CC2)[C@@H]1n1cc(Cl)c2cnc(-c3c[nH]c4ncc(F)cc34)nc21 [Compound B167] | 1 to 10
CNC(=O)N[C@H]1C2CCC(CC2)[C@@H]1n1cc(Cl)c2cnc(-c3c[nH]c4ncc(F)cc34)nc21 [Compound B168] | 1 to 10
O=C(O)[C@@H]1C2CCC(CC2)[C@H]1n1cc(-c2ccccn2)c2cnc(-c3c[nH]c4ncc(F)cc34)nc21 [Compound B169] | < 1
COC(=O)[C@@H]1C2CCC(CC2)[C@H]1n1cc(-c2ccccc2O)c2cnc(-c3c[nH]c4ncc(F)cc34)nc21 [Compound B170] | 10 to 100
CN(C)C(=O)N[C@H]1C2CCC(CC2)[C@@H]1n1cc(Cl)c2cnc(-c3c[nH]c4ncc(F)cc34)nc21 [Compound B171] | 1 to 10
CC(C)(C)OC(=O)N[C@@H]1C2CCC(CC2)[C@H]1n1cc(Cl)c2cnc(-c3c[nH]c4ncc(F)cc34)nc21 [Compound B172] | > 100
COC(=O)[C@@H]1C2CCC(CC2)[C@H]1n1cc(-c2ccn[nH]2)c2cnc(-c3c[nH]c4ncc(F)cc34)nc21 [Compound B173] | 1 to 10
CCOC(=O)[C@@H]1C2CCC(CC2)[C@H]1n1cc(-c2cn[nH]c2)c2cnc(-c3c[nH]c4ncc(F)cc34)nc21 [Compound B174] | 10 to 100
CC(C)c1cn([C@@H]2C3CCC(CC3)[C@H]2C(=O)O)c2nc(-c3c[nH]c4ncc(F)cc34)ncc12 [Compound B175] | < 1
CCOC(=O)[C@@H]1C2CCC(CC2)[C@H]1n1cc(-c2ccncc2)c2cnc(-c3c[nH]c4ncc(F)cc34)nc21 [Compound B176] | 10 to 100
CCOC(=O)[C@@H]1C2CCC(CC2)[C@H]1n1cc(C(F)(F)F)c2cnc(-c3c[nH]c4ncc(F)cc34)nc21 [Compound B177] | 10 to 100
CCOC(=O)[C@@H]1C2CCC(CC2)[C@H]1n1cc(-c2ccc(O)cc2)c2cnc(-c3c[nH]c4ncc(F)cc34)nc21 [Compound B178] | 10 to 100
O=C(O)[C@@H]1C2CCC(CC2)[C@H]1n1cc(-c2cn[nH]c2)c2cnc(-c3c[nH]c4ncc(F)cc34)nc21 [Compound B179] | < 1
CCOC(=O)[C@@H]1C2CCC(CC2)[C@H]1n1cc(C(C)C)c2cnc(-c3c[nH]c4ncc(F)cc34)nc21 [Compound B180] | 10 to 100
CCOC(=O)[C@@H]1C2CCC(CC2)[C@H]1n1cc(-c2cccnc2)c2cnc(-c3c[nH]c4ncc(F)cc34)nc21 [Compound B181] | 1 to 10
CCOC(=O)[C@@H]1C2CCC(CC2)[C@H]1n1cc(-c2cccc(O)c2)c2cnc(-c3c[nH]c4ncc(F)cc34)nc21 [Compound B182] | 1 to 10
CCOC(=O)[C@@H]1C2CCC(CC2)[C@H]1n1cc(-c2ccsc2)c2cnc(-c3c[nH]c4ncc(F)cc34)nc21 [Compound B183] | 10 to 100
CCOC(=O)[C@@H]1C2CCC(CC2)[C@H]1n1cc(CCc2ccccn2)c2cnc(-c3c[nH]c4ncc(F)cc34)nc21 [Compound B184] | 10 to 100

SMILES | IC50 [µM]
CCOC(=O)[C@H]1C2CCC(CC2)[C@@H]1n1cc(C#CCCSC)c2cnc(-c3c[nH]c4ncc(F)cc34)nc21 [Compound B185] | > 100
O=C(O)[C@@H]1C2CCC(CC2)[C@H]1n1cc(CCc2ccccn2)c2cnc(-c3c[nH]c4ncc(F)cc34)nc21 [Compound B186] | < 1
O=C(O)[C@@H]1C2CCC(CC2)C1n1cc(-c2ccncc2)c2cnc(-c3c[nH]c4ncc(Cl)cc34)nc21 (some centres unmarked) [Compound B187] | 1 to 10
CNC(=O)[C@@H]1C2CCC(CC2)[C@H]1n1cc(F)c2cnc(-c3c[nH]c4ncc(Cl)cc34)nc21 [Compound B188] | 1 to 10
N#Cc1cn([C@@H]2C3CCC(CC3)[C@H]2C(=O)O)c2nc(-c3c[nH]c4ncc(Cl)cc34)ncc12 [Compound B191] | < 1
CSCCCCc1cn([C@@H]2C3CCC(CC3)[C@H]2C(=O)O)c2nc(-c3c[nH]c4ncc(F)cc34)ncc12 [Compound B192] | < 1
N#CCCCCc1cn([C@@H]2C3CCC(CC3)[C@H]2C(=O)O)c2nc(-c3c[nH]c4ncc(F)cc34)ncc12 [Compound B193] | < 1
O=C(O)c1cn([C@H]2C3CCC(CC3)[C@@H]2C(=O)O)c2nc(-c3c[nH]c4ncc(Cl)cc34)ncc12 [Compound B196] | 1 to 10
CNC(=O)c1cn([C@H]2C3CCC(CC3)[C@@H]2C(=O)O)c2nc(-c3c[nH]c4ncc(Cl)cc34)ncc12 [Compound B197] | < 1
O=C(O)[C@@H]1C2CCC(CC2)[C@H]1n1ccc2ccc(-c3c[nH]c4ncc(F)cc34)cc21 [Compound B198] | 10 to 100
CCOC(=O)[C@@H]1C2CCC(CC2)[C@H]1n1ccc2ccc(-c3c[nH]c4ncc(F)cc34)nc21 [Compound B199] | 10 to 100
COC(=O)[C@@H]1C2CCC(CC2)[C@H]1n1ccc2ccc(-c3c[nH]c4ncc(Cl)cc34)cc21 [Compound B200] | 10 to 100
CCOC(=O)[C@@H]1C2CCC(CC2)[C@H]1n1cc(CCCCSC)c2cnc(-c3c[nH]c4ncc(F)cc34)nc21 [Compound B201] | > 100
CCOC(=O)[C@@H]1C2CCC(CC2)[C@H]1n1cc(CCCCC#N)c2cnc(-c3c[nH]c4ncc(F)cc34)nc21 [Compound B202] | > 100
CCOC(=O)[C@@H]1C2CCC(CC2)[C@H]1n1cc(C#CCCC#N)c2cnc(-c3c[nH]c4ncc(F)cc34)nc21 [Compound B203] | 10 to 100
CN(C)C(=O)c1cn([C@@H]2C3CCC(CC3)[C@H]2C(=O)O)c2nc(-c3c[nH]c4ncc(Cl)cc34)ncc12 [Compound B204] | < 1
O=C(O)[C@@H]1C2CCC(CC2)[C@H]1n1ccc2ccc(-c3c[nH]c4ncc(F)cc34)nc21 [Compound B205] | 1 to 10
O=C(O)[C@@H]1C2CCC(CC2)[C@H]1n1ccc2ccc(-c3c[nH]c4ncc(Cl)cc34)cc21 [Compound B206] | 1 to 10
CCOC(=O)c1cn([C@@H]2C3CCC(CC3)[C@H]2C(=O)O)c2nc(-c3c[nH]c4ncc(Cl)cc34)ncc12 [Compound B207] | < 1
O=C(O)[C@@H]1C2CCC(CC2)[C@H]1n1ccc2cnc(-c3c[nH]c4ncc(F)cc34)cc21 [Compound B208] | 1 to 10
O=CC1=C(n2cc(F)c3cnc(-c4c[nH]c5ncc(Cl)cc45)nc32)C2CCC1CC2 [Compound B209] | 1 to 10
